Test results from patent publication US20240018150A1.
pIC50: −log10 of the molar value.

Tests used:
[1] = tested on: TMD8 cells; experiment: Cell assay, in-vitro inhibition of TMD8 cells (CellTiter-Glo); format: cell-based; details: Homo sapiens, 2000 cells/well, 72 hrs, read-out: TMD8 (IC50, in-vitro inhibitory test on cells)
Description: (§1) Plating: The cells were suspended in serum-free medium and counted with automatic cell counter. According to the seeding density, the cell suspension was diluted to the required density. 95 μL cell (2000 cells/well) was added to each well, and incubated at 5% CO2 and 37° C.
(§2) Preparation of compound solution: The compound was prepared into a diluted solution of 1000× final concentration with dimethyl sulfoxide. The test concentrations of the compound were 10000, 3333.33, 1111.11, 370.37, 123.46, 41.15, 13.72, 4.57, 1.52, and 0.51 nM. The compound was diluted with the culture medium to prepare a compound solution of 20× final concentration. 5 uL of the compound solution was added to each well, and the same volume of dimethyl sulfoxide was added to the control well. The cells were incubated at 37° C. and 5% CO2 for 72 hrs.
(§3) Detection: The cell plate equilibrated to room temperature, 40 μl of CellTiter-Glo® reagent was added to each well, shaken for 2 min, allowed to stand for 10 min, and detected with SpectraMax Paradigm.
(§4) Data Analysis • (1) The IC50 value was calculated using GraphPad Prism 5. • (2) % Inh=(Max signal−Compound signal)/(Max signal−Min signal)×100. • (3) Max signal was a value of the positive control well in which only DMSO of the same volume with the compound solution was present. • (4) Min signal was a value of the negative control well in which only the culture medium was present.

[2] = tested on: Ba/F3-BCR-BTK-C481S cells; experiment: Cell assay, in-vitro inhibition of Ba/F3-BCR-BTK-C481S cells (CellTiter-Glo); format: cell-based; details: 2000 cells/well, 72 hrs, read-out: Ba/F3-BCR-BTK-C481S (IC50, in-vitro inhibitory test on cells)
Description: as §1, §2, §3, §4

[3] = biological target: BTK kinase (Homo sapiens, UniProt Q06187); experiment: Inhibitory activity test on BTK kinase (electrophoretic mobility shift assay); format: biochemical; details: Caliper EZ ReaderII, enzyme and compound 10 min at room temperature, read-out: BTK (IC50, in-vitro inhibitory test on kinase)
BTK kinase, sequence (Q06187 whole entry): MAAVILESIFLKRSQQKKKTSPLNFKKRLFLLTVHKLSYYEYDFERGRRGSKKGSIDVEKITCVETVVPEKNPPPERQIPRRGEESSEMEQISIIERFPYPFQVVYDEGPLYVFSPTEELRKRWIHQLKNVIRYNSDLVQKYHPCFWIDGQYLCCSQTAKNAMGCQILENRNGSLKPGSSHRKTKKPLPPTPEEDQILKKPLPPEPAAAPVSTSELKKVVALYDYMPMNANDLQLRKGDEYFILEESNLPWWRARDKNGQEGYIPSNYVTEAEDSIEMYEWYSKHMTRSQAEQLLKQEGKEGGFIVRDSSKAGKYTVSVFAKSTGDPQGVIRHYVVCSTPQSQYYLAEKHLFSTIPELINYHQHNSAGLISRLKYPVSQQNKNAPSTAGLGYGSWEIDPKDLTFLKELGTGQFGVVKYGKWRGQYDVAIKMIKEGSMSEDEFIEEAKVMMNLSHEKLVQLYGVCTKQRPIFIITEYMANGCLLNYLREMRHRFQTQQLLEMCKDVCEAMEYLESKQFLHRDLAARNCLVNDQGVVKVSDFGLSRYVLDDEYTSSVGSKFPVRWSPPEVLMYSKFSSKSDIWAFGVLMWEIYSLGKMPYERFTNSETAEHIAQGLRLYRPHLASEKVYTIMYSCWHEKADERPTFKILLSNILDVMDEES

Compound	pIC50 [2]	pIC50 [3]	pIC50 [1]
O=C(c1ccc(Oc2ccccc2)cc1Cl)c1c[nH]c2ncnc(N[C@@H]3CC[C@@H](CO)OC3)c12 [ARQ531, reference compound]	6.35		6.95
O=C(c1ccc(Oc2ccccc2)cc1)c1c[nH]c2nccc(N[C@H]3CC[C@@H](C(=O)O)CC3)c12 [Compound I-8, (1s, 4s)-4-((3-(4-phenoxybenzoyl)-1H-pyrrolo[2,3-b]pyridin-4-yl)amino)cyclohexane-1-carboxylic acid]		8.15	
O=C(c1ccc(Oc2ccccc2)cc1Cl)c1c[nH]c2nccc(N[C@H]3C[C@@H](C(=O)O)C3)c12 [Compound I-11, (1s, 3s)-3-((3-(2-chloro-4-phenoxybenzoyl)-1H-pyrrolo[2,3-b]pyridin-4-yl)amino)cyclobutane-1-carboxylic acid]		8.21	
O=C(c1ccc(Oc2ccccc2)cc1Cl)c1c[nH]c2nccc(NC3CCNCC3)c12 [Compound I-22, (2-chloro-4-phenoxyphenyl)(4-(piperidin-4-ylamino)-1H-pyrrolo[2,3-b]pyridin-3-yl)methanone]		8.02	
O=C(c1ccc(Oc2ccccc2)cc1Cl)c1c[nH]c2nccc(N[C@@H]3CCCNC3)c12 [Compound I-23, (R)-(2-chloro-4-phenoxyphenyl)(4-(piperidin-3-ylamino)-1H-pyrrolo[2,3-b]pyridin-3-yl)methanone]		7.32	
O=C(c1ccc(Oc2ccccc2)cc1Cl)c1c[nH]c2nccc(NCCOCCO)c12 [Compound I-28, (2-chloro-4-phenoxyphenyl)(4-((2-(2-hydroxyethoxy)ethyl)amino)-1H-pyrrolo[2,3-b]pyridin-3-yl)methanone]		6.96	
O=C(c1ccc(Oc2ccccc2)cc1Cl)c1c[nH]c2nccc(N[C@@H]3CC[C@@H](CO)OC3)c12 [Compound I-32, (2-chloro-4-phenoxyphenyl)(4-(((3R, 6S)-6-(hydroxymethyl)tetrahydro-2H-pyran-3-yl)amino)-1H-pyrrolo[2,3-b]pyridin-3-yl)methanone]		7.96	
O=C(c1ccc(Oc2ccccc2)cc1)c1c[nH]c2nccc(N[C@H]3CC[C@@H](CO)CC3)c12 [Compound I-33, (4-(((1s, 4s)-4-(hydroxymethyl)cyclohexyl)amino)-1H-pyrrolo[2,3-b]pyridin-3-yl)(4-phenoxyphenyl)methanone]		7.10	
CNC(=O)[C@H]1CC[C@H](Nc2ccnc3[nH]cc(C(=O)c4ccc(Oc5ccccc5)cc4Cl)c23)CC1 [Compound I-35, (1r, 4r)-4-((3-(2-chloro-4-phenoxybenzoyl)-1H-pyrrolo[2,3-b]pyridin-4-yl)amino)-N-methylcyclohexane-1-carboxamide]		7.66	
NS(=O)(=O)N1CCC(Nc2ccnc3[nH]cc(C(=O)c4ccc(Oc5ccccc5)cc4Cl)c23)CC1 [Compound I-37, 4-((3-(2-chloro-4-phenoxybenzoyl)-1H-pyrrolo[2,3-b]pyridin-4-yl)amino)piperidin-1-sulfonamide]		6.85	
CS(=O)(=O)N1CCC(Nc2ccnc3[nH]cc(C(=O)c4ccc(Oc5ccccc5)cc4Cl)c23)CC1 [Compound I-38, (2-chloro-4-phenoxyphenyl)(4-((1-(methanesulfonyl)piperidin-4-yl)amino)-1H-pyrrolo[2,3-b]pyridin-3-yl)methanone]		6.62	
CC(=O)N[C@H]1CC[C@@H](Nc2ccnc3[nH]cc(C(=O)c4ccc(Oc5ccccc5)cc4Cl)c23)CC1 [Compound I-87, N-((1s, 4s)-4-((3-(2-chloro-4-phenoxybenzoyl)-1H-pyrrolo[2,3-b]pyridin-4-yl)amino)cyclohexyl)acetamide]	6.99		6.94

More lines, main results first:

pIC50 [2]	pIC50 [3]	Compound	pIC50 [1]
	8.05	O=C(c1ccc(Oc2ccccc2)cc1Cl)c1c[nH]c2nccc(N[C@H]3CC[C@H](C(=O)O)CC3)c12 [Compound I-5, (1r, 4r)-4-((3-(2-chloro-4-phenoxybenzoyl)-1H-pyrrolo[2,3-b]pyridin-4-yl)amino)cyclohexane-1-carboxylic acid]	
	8.57	O=C(c1ccc(Oc2ccccc2)cc1Cl)c1c[nH]c2nccc(N[C@H]3CC[C@@H](C(=O)O)CC3)c12 [Compound I-6, (1s, 4s)-4-((3-(2-chloro-4-phenoxybenzoyl)-1H-pyrrolo[2,3-b]pyridin-4-yl)amino)cyclohexane-1-carboxylic acid]	
	7.28	O=C(c1ccc(Oc2ccccc2)cc1Cl)c1c[nH]c2nccc(N[C@H]3CC[C@H](O)CC3)c12 [Compound I-24, (2-chloro-4-phenoxyphenyl)(4-(((1r, 4r)-4-hydroxycyclohexyl)amino)-1H-pyrrolo[2,3-b]pyridin-3-yl)methanone]	
	7.02	O=C(c1ccc(Oc2ccccc2)cc1Cl)c1c[nH]c2nccc(N[C@H]3CC[C@H](CO)CC3)c12 [Compound I-30, (2-chloro-4-phenoxyphenyl)(4-(((1r, 4r)-4-(hydroxymethyl)cyclohexyl)amino)-1H-pyrrolo[2,3-b]pyridin-3-yl)methanone]	
	7.55	O=C(c1ccc(Oc2ccccc2)cc1Cl)c1c[nH]c2nccc(N[C@H]3CC[C@@H](CO)CC3)c12 [Compound I-31, (2-chloro-4-phenoxyphenyl)(4-(((1s, 4s)-4-(hydroxymethyl)cyclohexyl)amino)-1H-pyrrolo[2,3-b]pyridin-3-yl)methanone]	
	7.80	N[C@H]1CC[C@H](Nc2ccnc3[nH]cc(C(=O)c4ccc(Oc5ccccc5)cc4Cl)c23)CC1 [Compound I-73, (4-(((1r, 4r)-4-aminocyclohexyl)amino)-1H-pyrrolo[2,3-b]pyridin-3-yl)(2-chloro-4-phenoxyphenyl)methanone]	
7.28	8.55	N[C@H]1CC[C@@H](Nc2ccnc3[nH]cc(C(=O)c4ccc(Oc5ccccc5)cc4Cl)c23)CC1 [Compound I-74, (4-(((1s, 4s)-4-aminocyclohexyl)amino)-1H-pyrrolo[2,3-b]pyridin-3-yl)(2-chloro-4-phenoxyphenyl)methanone]	7.18
7.16		CN[C@H]1CC[C@@H](Nc2ccnc3[nH]cc(C(=O)c4ccc(Oc5ccccc5)cc4Cl)c23)CC1 [Compound I-89]	7.01
